According to patent US8435987B2, “Pyrazolo-pyridinone and pyrazolo-pyrazinone compounds as P38 modulators and methods of use thereof” (Amgen Inc., priority 2007, dated 2013):
Like-named read-outs stand apart in the source and are kept apart here.

Key:
[1] = test system: secreted IL-8 by whole blood activated with TNF-α; assay: Inhibition of TNF-α induced IL-8 in 50% human whole blood; format: cell-based
Experimental: Inhibition of TNF-α Induced IL-8 in 50% Human Whole Blood
Test compounds were evaluated in vitro for the ability to inhibit the production of secreted IL-8 by whole blood activated with TNF-α. Fresh human whole blood was obtained from healthy, non-medicated volunteers in sodium heparin tubes.
Compound Dilution—Assay Procedure
Test compounds are serially diluted 1:3 in DMSO and then diluted 1:250 into R10 (RPMI 1640, 10% human serum AB, 1× pen/strep/glutamine) to the 4× working concentration to be used in the assay. 100 ul heparinized whole blood is plated into wells of 96 well flat bottom plates. 50 ul of either 4× compound or DMSO control (Final DMSO concentration is 0.1%) are added to the appropriate wells. Plates are incubated for 1 hour at 37 degrees Celsius. 50 ul of 4× TNF-α (4 nM TNF-α, for a final concentration of 1 nM) or control (media alone) is added to the appropriate wells (Total volume=200 ul). Plates are incubated overnight (16-18 hours). 100 ul of supernatant is collected and stored in 96-well round bottom polypropylene plates at −80 degrees Celsius or assayed immediately for IL-8.
Cytokines are measured on antibody (Ab) sandwich ECL based 96-well detection plates. 20 ul of supernatant are added to plate and plate is sealed and shaken at RT for 1 hour. 130 ul of detection Ab cocktail is added and plates are sealed and shaken for 1 hour in the dark at RT. Plates are read on MSD Sector HTS instrument. Data are analyzed and IC50 values generated using Activity Base and Xl-fit programs.

[2] = test system: production of IL-1β, IL-6, and TNF-α by PBMC activated with bacterial lipopolysaccharide (LPS); assay: Lipopolysaccharide-activated PBMC cytokine production assay; format: cell-based; conditions: LPS 100 ng/mL, 18 hours
Experimental: Lipopolysaccharide-Activated PBMC Cytokine Production Assay
Test compounds were evaluated in vitro for the ability to inhibit the production of IL-1β, IL-6, and TNF-α by PBMC activated with bacterial lipopolysaccharide (LPS). Fresh leukocytes were obtained from a local blood bank, and peripheral blood mononuclear cells (PBMCs) were isolated by density gradient centrifugation on Ficol-Paque Plus (Pharmacia).
Preparation of Test Compound Stock Solutions
All reagents were prepared in RPMI 1640+10% v/v human AB serum+1×Pens/Strep/Glu (assay medium). Test compounds were dissolved in 100% DMSO and serially diluted in 96-well polypropylene round bottom micro titer plates (drug plate). Serial dilutions were then diluted 1:250 into assay medium to a 4× working concentration. […]
LPS was prepared to a 4× concentration in assay medium. […] After 18 hours culture supernatants were removed and IL-1β, IL-6, and TNF-α presence in the supernatants was quantified using MSD ECL based technology.
20 μL of culture supernatant were added to MSD plates, and incubated for one hour at room temperature. 20 μL of detection antibody diluted in antibody diluent (1 μg/mL), and 110 μL of 2× Read Buffer P was added, and incubated for one hour at RT. Electrochemiluminescence was measured using the SECTOR HTS Imager (MSD, Gaithersburg, Md.). […]

[3] = 50% human whole blood, TNF-α (1 nM final) induced IL-8, 16-18 hours, read-out: WB TNF/IL8 IC50
[4] = Homo sapiens, read-out: IC50, TNF-α induced IL-8 in 50% human whole blood

Compound | IC50 [1, 3] | IC50 [1, 4] | IC50 [2]
CNc1noc2c(-c3cc4cnn(-c5c(F)cccc5F)c4n(C)c3=O)c(C)ccc12 [Example 5, 1-(2,6-difluorophenyl)-7-methyl-5-(6-methyl-3-(methylamino)-1,2-benzisoxazol-7-yl)-1,7-dihydro-6H-pyrazolo[3,4-b]pyridin-6-one] | 2.7 nM | ≤ 100 nM | ≤ 100 nM
Cc1ccc2c(NC3CC3)noc2c1-c1cc2cnn(-c3c(F)cccc3F)c2n(C)c1=O [Example 1, 5-(3-(cyclopropylamino)-6-methylbenzo[d]isoxazol-7-yl)-1-(2,6-difluorophenyl)-7-methyl-1H-pyrazolo[3,4-b]pyridin-6(7H)-one] | 1.1 nM | ≤ 100 nM | ≤ 100 nM
